Test results: patent US11925629B2, “Heterocyclic inhibitors of ERK1 and ERK2 and their use in the treatment of cancer” (Asana Biosciences, LLC, priority 2015, dated 2024)

Tests used:
Format in all cases: cell-based, human
[1] = tested on: HT-29 (colorectal carcinoma, B-RafV600E) cells; assay: Cell proliferation (Alamar Blue) assay, HT-29; details: Homo sapiens, HT-29, HT29 cells
Outline: (§1)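 Cells seeded at 5000/well and allowed 16-24 h at 37° C./5% CO2, then exposed to 3-fold serial dilutions (typically 0.0005 to 10 uM) for 72 h. Viability read by Alamar Blue (1×, 1-3 h) fluorescence at 540/590 nm; IC50 from variable-slope sigmoidal fit.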

[2] = tested on: phosphorylation of RSK1(S380) (the downstream target of ERK1/2); assay: Phospho-RSK1(S380) ELISA assay in HT-29 cells; details: Homo sapiens, HT-29, HT29 cells, phospho-RSK1(S380); read-out: Mechanistic Cell Assay RSK1 Phos HT29 IC50
Outline: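 IC50 values derive from a variable-slope sigmoidal fit of sandwich-ELISA signal (450 nm) for RSK1 Ser380 phosphorylation. The cells were B-RafV600E HT-29 colorectal line, exposed to serially diluted compound for 2 h after overnight seeding, then lysed at 4° C.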

[3] = tested on: HCT116 (colorectal carcinoma, K Ras G13D) cells; assay: Cell proliferation (Alamar Blue) assay, HCT116; details: Homo sapiens, HCT-116, HCT116 cells
Outline: as §1

Row | SMILES | IC50 [1] [nM] | IC50 [2] [nM] | IC50 [3] [nM]
1 | Cc1cnc(N[C@@H]2CCOC2)nc1-n1ccc(C(=O)N[C@H](CO)c2cccc(Cl)c2)c1 [Example 162, N-((S)-1-(3-chlorophenyl)-2-hydroxy-ethyl)-1-(5-methyl-2-(((R)-tetra-hydrofuran-3-yl)amino)pyrimidin-4-yl)-1H-pyrrole-3-carboxamide] | 100 to 250 | ≤ 100 | 500 to 2500
2 | Cc1cnc(Nc2ccc(F)cc2)cc1-n1ccc(C(=O)NC(CN)c2ccc(F)c(Cl)c2)c1 (stereo not drawn) [Example 164, N-(2-amino-1-(3-chloro-4-fluoro-phenyl)ethyl)-1-(2-((4-fluorophenyl)-amino)-5-methyl-pyridin-4-yl)-1H-pyrrole-3-carboxamide] | 500 to 2500 | 500 to 2500 | > 2500
3 | Cc1cnc(NC2CCOC2)cc1-n1ccc(C(=O)NC(CO)c2cccc(Cl)c2)c1 (stereo not drawn) [Example 165, N-(1-(3-chloro-phenyl)-2-hydroxy-ethyl)-1-(5-methyl-2-((tetra-hydrofuran-3-yl)amino)pyridin-4-yl)-1H-pyrrole-3-carboxamide] | > 2500 | 500 to 2500 | > 2500
4 | Cc1cnc(Nc2ccc(F)cc2Cl)nc1-n1cnc(C(=O)NC(CO)c2cccc(Cl)c2)c1 (stereo not drawn) [Example 166, 1-(2-((2-chloro-4-fluorophenyl)amino)-5-methyl-pyrimidin-4-yl)-N-(1-(3-chlorophenyl)-2-hydroxy-ethyl)-1H-imidazole-4-carboxamide] | 500 to 2500 | 250 to 500 | > 2500
5 | CC[C@H](CO)Nc1ncc(C)c(-n2ccc(C(=O)NC(CO)c3cccc(Cl)c3)c2)n1 (stereo partly drawn) [Example 167, N-(1-(3-chloro-phenyl)-2-hydroxy-ethyl)-1-(2-(((R)-1-hydroxy-butan-2-yl)amino)-5-methyl-pyrimidin-4-yl)-1H-pyrrole-3-carboxamide] | 500 to 2500 | 500 to 2500 | > 2500
6 | CC[C@H](CO)Nc1cc(-n2cnc(C(=O)NC(CO)c3cccc(Cl)c3)c2)c(Cl)cn1 (stereo partly drawn) [Example 168, 1-(5-chloro-2-(((R)-1-hydroxybutan-2-yl)amino)pyridin-4-yl)-N-(1-(3-chlorophenyl)-2-hydroxyethyl)-1H-imidazole-4-carboxamide] | > 2500 | 500 to 2500 | > 2500
7 | Cc1cnc(Nc2ccc(F)cc2Cl)nc1-n1ccc(C(=O)NC(CN)c2cccc(Cl)c2)c1 (stereo not drawn) [Example 169, N-(2-amino-1-(3-chlorophenyl)ethyl)-1-(2-((2-chloro-4-fluorophenyl)amino)-5-methylpyrimidin-4-yl)-1H-pyrrole-3-carboxamide] | 250 to 500 | 500 to 2500 | 500 to 2500
8 | O=C(N[C@H](CO)c1cccc(Cl)c1)c1cn(-c2ccnc(NC3CCOC3)c2)cn1 (stereo partly drawn) [Example 170, N-((S)-1-(3-chlorophenyl)-2-hydroxyethyl)-1-(2-((tetrahydrofuran-3-yl)amino)pyridin-4-yl)-1H-imidazole-4-carboxamide] | 500 to 2500 | > 2500 | > 2500
9 | Cc1cnc(Nc2cccnc2)cc1-n1ccc(C(=O)NC(CO)c2ccc(F)c(Cl)c2)c1 (stereo not drawn) [Example 171, N-(1-(3-chloro-4-fluorophenyl)-2-hydroxyethyl)-1-(5-methyl-2-(pyridin-3-ylamino)pyridin-4-yl)-1H-pyrrole-3-carboxamide] | 500 to 2500 | > 2500 | > 2500
10 | Cc1cnc(Nc2ccc3c(c2)OCO3)nc1-n1ccc(C(=O)NC(CO)c2ccc(F)cc2)c1 (stereo not drawn) [Example 172, 1-(2-(benzo[d][1,3]dioxol-5-ylamino)-5-methylpyrimidin-4-yl)-N-(1-(4-fluorophenyl)-2-hydroxyethyl)-1H-pyrrole-3-carboxamide] | 500 to 2500 | 100 to 250 | 250 to 500
11 | Cc1cnc(Nc2ccc3c(c2)CCCO3)nc1-n1ccc(C(=O)NC(CO)c2ccccc2)c1 (stereo not drawn) [Example 173, 1-(2-(chroman-6-ylamino)-5-methylpyrimidin-4-yl)-N-(2-hydroxy-1-phenylethyl)-1H-pyrrole-3-carboxamide] | 100 to 250 | 100 to 250 | 100 to 250
12 | Cc1cnc(NC2CCNC2)nc1-n1ccc(C(=O)N[C@H](CO)c2cccc(Cl)c2)c1 (stereo partly drawn) [Example 174, N-((S)-1-(3-chlorophenyl)-2-hydroxyethyl)-1-(5-methyl-2-(pyrrolidin-3-ylamino)pyrimidin-4-yl)-1H-pyrrole-3-carboxamide] | > 2500 | > 2500 | > 2500
13 | Cc1cnc(Nc2ccc(F)c(N3CCOCC3)c2)nc1-n1ccc(C(=O)NC(CO)c2cccc(Cl)c2)c1 (stereo not drawn) [Example 175, N-(1-(3-chlorophenyl)-2-hydroxyethyl)-1-(2-((4-fluoro-3-morpholinophenyl)amino)-5-methylpyrimidin-4-yl)-1H-pyrrole-3-carboxamide] | ≤ 100 | 100 to 250 | 250 to 500
14 | O=C(NC(CO)c1cccc(Cl)c1)c1ccn(-c2ccnc(Nc3ccc4c(c3)OC(F)(F)O4)n2)c1 (stereo not drawn) [Example 176, N-(1-(3-chlorophenyl)-2-hydroxyethyl)-1-(2-((2,2-difluorobenzo[d][1,3]dioxol-5-yl)amino)pyrimidin-4-yl)-1H-pyrrole-3-carboxamide] | 500 to 2500 | 500 to 2500 | > 2500
15 | Cc1cnc(Nc2ccc(F)cc2)nc1-n1cnc(C(=O)NC(CN)c2cccc(Cl)c2)c1 (stereo not drawn) [Example 177, N-(2-amino-1-(3-chlorophenyl)ethyl)-1-(2-((4-fluorophenyl)amino)-5-methylpyrimidin-4-yl)-1H-imidazole-4-carboxamide] | ≤ 100 | 100 to 250 | 100 to 250
16 | Cc1cnc(Nc2ccc(N3CCC(N4CCNCC4)CC3)cc2)nc1-n1ccc(C(=O)NC(CO)c2ccccc2)c1 (stereo not drawn) [Example 178, N-(2-hydroxy-1-phenylethyl)-1-(5-methyl-2-((4-(4-(piperazin-1-yl)piperidin-1-yl)phenyl)amino)pyrimidin-4-yl)-1H-pyrrole-3-carboxamide] | > 2500 | 250 to 500 | 500 to 2500
17 | Cc1cnc(Nc2ccc(F)c(C(=O)N3CCN(C)CC3)c2)nc1-n1ccc(C(=O)NC(CO)c2cccc(Cl)c2)c1 (stereo not drawn) [Example 179, N-(1-(3-chlorophenyl)-2-hydroxyethyl)-1-(2-((4-fluoro-3-(4-methylpiperazine-1-carbonyl)phenyl)amino)-5-methylpyrimidin-4-yl)-1H-pyrrole-3-carboxamide] | 500 to 2500 | 500 to 2500 | 500 to 2500
18 | Cc1cnc(Nc2ccccc2)cc1-n1cnc(C(=O)NC(CO)c2cccc(Cl)c2)c1 (stereo not drawn) [Example 180, N-(1-(3-chlorophenyl)-2-hydroxyethyl)-1-(5-methyl-2-(phenylamino)pyridin-4-yl)-1H-imidazole-4-carboxamide] | 500 to 2500 | 250 to 500 | > 2500
19 | COc1cc(C(=O)N2CCOCC2)c(F)cc1Nc1ncc(C)c(-n2ccc(C(=O)NC(CO)c3cccc(Cl)c3)c2)n1 (stereo not drawn) [Example 181, N-(1-(3-chlorophenyl)-2-hydroxyethyl)-1-(2-((5-fluoro-2-methoxy-4-(morpholine-4-carbonyl)phenyl)amino)-5-methylpyrimidin-4-yl)-1H-pyrrole-3-carboxamide] | > 2500 | 500 to 2500 | > 2500
